# Measurements reported in ChEMBL document CHEMBL1201862, “PubChem BioAssay data set” (2004).
#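 Exposure lasted 48 hours, with cells grown in 96-well plates and compounds tested at five concentrations. Abbreviation: GI50, concentration required for 50% inhibition of growth.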 Active and inactive are the calls of the source. Cut-off read from the data, not from the text of the source: active = GI50 up to about 1.1 µM and inactive = higher.
# Key:
# Assay in all cases: inhibition of tumour cell growth, NCI panel, 48 h
# SN12C = test system: SN12C
# UO-31 = test system: UO-31
# T47D = test system: T47D
# SK-OV-3 = test system: SK-OV-3
# COLO 205 = test system: COLO 205
# SR = test system: SR
# HT-29 = test system: HT-29
# NCI-H23 = test system: NCI-H23
# A549 = test system: A549
# LOX IMVI = test system: LOX IMVI
# MDA-MB-435 = test system: MDA-MB-435
# SW-620 = test system: SW-620
# Hs-578T = test system: Hs-578T
# PC-3 = test system: PC-3
# SF-539 = test system: SF-539
# HCT-15 = test system: HCT-15
# SK-MEL-28 = test system: SK-MEL-28
# HL-60 = test system: HL-60
# NCI-H460 = test system: NCI-H460
SMILES,GI50 (SN12C),GI50 (UO-31),GI50 (T47D),GI50 (SK-OV-3),GI50 (COLO 205),GI50 (SR),GI50 (HT-29),GI50 (NCI-H23),GI50 (A549),GI50 (LOX IMVI),GI50 (MDA-MB-435),GI50 (SW-620),GI50 (Hs-578T),GI50 (PC-3),GI50 (SF-539),GI50 (HCT-15) [µM],GI50 (SK-MEL-28),GI50 (HL-60),GI50 (NCI-H460)
Clc1ccc(CN2CCCN(Cc3ccc(Cl)cc3)C2c2cc3ccccc3c3ccccc23)cc1,67.3 µM (inactive),88.1 µM (inactive),32.4 µM (inactive),> 100 µM (inactive),19.7 µM (inactive),3.21 µM (inactive),36.8 µM (inactive),46.3 µM (inactive),> 100 µM (inactive),36.5 µM (inactive),30.2 µM (inactive),51.8 µM (inactive),24.4 µM (inactive),24.3 µM (inactive),62.2 µM (inactive),62.8,22.8 µM (inactive),–,–
O=C(/C=C\c1ccccc1)Oc1ccc(/C=C2\CCC/C(=C\c3ccc(OC(=O)/C=C\c4ccccc4)cc3)C2=O)cc1,> 100 µM (inactive),> 100 µM (inactive),> 100 µM (inactive),–,> 100 µM (inactive),> 100 µM (inactive),> 100 µM (inactive),> 100 µM (inactive),> 100 µM (inactive),> 100 µM (inactive),> 100 µM (inactive),> 100 µM (inactive),> 100 µM (inactive),> 100 µM (inactive),> 100 µM (inactive),> 100,> 100 µM (inactive),> 100 µM (inactive),> 100 µM (inactive)
Cc1cc2c(c(/C=N/Cc3ccccc3)c1)OC1(C=C2)Oc2ccccc2C(=O)N1C (configuration not stated),27.7 µM (inactive),14 µM (inactive),10.4 µM (inactive),37.5 µM (inactive),17.9 µM (inactive),3.54 µM (inactive),21.6 µM (inactive),24.8 µM (inactive),29.5 µM (inactive),17.4 µM (inactive),28.7 µM (inactive),33.6 µM (inactive),18.3 µM (inactive),24.7 µM (inactive),–,19.6,29.8 µM (inactive),21 µM (inactive),25.1 µM (inactive)
COc1ccccc1N1C(=O)CSC1c1c[nH]c2ccccc12 (configuration not stated),> 100 µM (inactive),58.1 µM (inactive),> 100 µM (inactive),> 100 µM (inactive),> 100 µM (inactive),–,> 100 µM (inactive),> 100 µM (inactive),> 100 µM (inactive),–,> 100 µM (inactive),> 100 µM (inactive),> 100 µM (inactive),–,> 100 µM (inactive),> 100,66.7 µM (inactive),> 100 µM (inactive),> 100 µM (inactive)
C/C=N\n1c(C)n[nH]c1=O,> 100 µM (inactive),> 100 µM (inactive),> 100 µM (inactive),–,> 100 µM (inactive),> 100 µM (inactive),> 100 µM (inactive),> 100 µM (inactive),> 100 µM (inactive),> 100 µM (inactive),> 100 µM (inactive),> 100 µM (inactive),> 100 µM (inactive),> 100 µM (inactive),> 100 µM (inactive),> 100,> 100 µM (inactive),> 100 µM (inactive),> 100 µM (inactive)
CC(C)(C)OC(=O)N(O)CCCn1cnc2c(NC3CC3)ncnc21,> 100 µM (inactive),> 100 µM (inactive),> 100 µM (inactive),> 100 µM (inactive),> 100 µM (inactive),> 100 µM (inactive),> 100 µM (inactive),> 100 µM (inactive),> 100 µM (inactive),> 100 µM (inactive),> 100 µM (inactive),> 100 µM (inactive),> 100 µM (inactive),> 100 µM (inactive),> 100 µM (inactive),> 100,> 100 µM (inactive),–,> 100 µM (inactive)
FC1(F)SC2CCCCCCCCCCC2C1(F)F (configuration not stated),–,78.2 µM (inactive),30.9 µM (inactive),61.7 µM (inactive),18.6 µM (inactive),67.5 µM (inactive),29.7 µM (inactive),23.8 µM (inactive),35 µM (inactive),16.4 µM (inactive),28.3 µM (inactive),–,36.1 µM (inactive),42.6 µM (inactive),–,42.5,18.5 µM (inactive),15.4 µM (inactive),–
COc1ccc2c3c1OC1c4[nH]c5ccccc5c4CC4(O)C(C2)N(C)CCC314 (configuration not stated),56.6 µM (inactive),13.6 µM (inactive),20.8 µM (inactive),> 100 µM (inactive),18.4 µM (inactive),15.2 µM (inactive),22 µM (inactive),> 100 µM (inactive),59.2 µM (inactive),20.1 µM (inactive),18.1 µM (inactive),39.1 µM (inactive),21.3 µM (inactive),37.2 µM (inactive),–,46.6,17.4 µM (inactive),–,22 µM (inactive)
Cc1c(C)c2c(c(N)c1C#N)C(=O)N(N)C2=O,> 100 µM (inactive),93.3 µM (inactive),> 100 µM (inactive),> 100 µM (inactive),> 100 µM (inactive),26.3 µM (inactive),> 100 µM (inactive),> 100 µM (inactive),> 100 µM (inactive),–,> 100 µM (inactive),80.5 µM (inactive),> 100 µM (inactive),> 100 µM (inactive),> 100 µM (inactive),> 100,> 100 µM (inactive),> 100 µM (inactive),> 100 µM (inactive)
COC(=O)[C@H]1NC(=O)CCSSC1(C)C,> 100 µM (inactive),> 100 µM (inactive),> 100 µM (inactive),–,> 100 µM (inactive),–,> 100 µM (inactive),> 100 µM (inactive),> 100 µM (inactive),> 100 µM (inactive),> 100 µM (inactive),> 100 µM (inactive),> 100 µM (inactive),> 100 µM (inactive),> 100 µM (inactive),> 100,> 100 µM (inactive),> 100 µM (inactive),–
COC(=O)[C@H](Cc1ccccc1)NC(=O)c1ccc(CNC(=O)/C=C/c2ccc(-c3ccccc3)cc2)cc1,> 100 µM (inactive),> 100 µM (inactive),> 100 µM (inactive),57.8 µM (inactive),> 100 µM (inactive),–,3.71 µM (inactive),27.8 µM (inactive),> 100 µM (inactive),–,> 100 µM (inactive),> 100 µM (inactive),22.8 µM (inactive),> 100 µM (inactive),–,> 100,> 100 µM (inactive),25.9 µM (inactive),> 100 µM (inactive)
O=C(Nc1ccccc1)c1cc2ccccc2c(/N=N/c2ccc([N+](=O)[O-])cc2)c1O,> 100 µM (inactive),> 100 µM (inactive),> 100 µM (inactive),81.8 µM (inactive),> 100 µM (inactive),–,> 100 µM (inactive),33.2 µM (inactive),> 100 µM (inactive),> 100 µM (inactive),> 100 µM (inactive),> 100 µM (inactive),55.1 µM (inactive),> 100 µM (inactive),–,> 100,> 100 µM (inactive),1.14 µM (inactive),–
CCOC(=O)C(C(=O)OCC)C(NC(=O)Nc1cc(C(F)(F)F)ccc1OC)(C(F)(F)F)C(F)(F)F,27.5 µM (inactive),21 µM (inactive),30.4 µM (inactive),47.6 µM (inactive),17.8 µM (inactive),–,35.8 µM (inactive),35.3 µM (inactive),39.4 µM (inactive),29.8 µM (inactive),19.1 µM (inactive),24.6 µM (inactive),25.2 µM (inactive),39.6 µM (inactive),19.5 µM (inactive),45.8,37.5 µM (inactive),21.8 µM (inactive),31.5 µM (inactive)
CC(C)CC(NP(=O)(O)OC1OC(C)C(O)C(O)C1O)C(=O)NC(Cc1c[nH]c2ccccc12)C(=O)O (configuration not stated),> 100 µM (inactive),> 100 µM (inactive),> 100 µM (inactive),> 100 µM (inactive),> 100 µM (inactive),–,> 100 µM (inactive),> 100 µM (inactive),> 100 µM (inactive),–,> 100 µM (inactive),> 100 µM (inactive),> 100 µM (inactive),> 100 µM (inactive),> 100 µM (inactive),> 100,> 100 µM (inactive),–,> 100 µM (inactive)
O=S(=O)(O)c1cc(Nc2ccnc3ccccc23)c2c(S(=O)(=O)O)cc(S(=O)(=O)O)cc2c1,> 100 µM (inactive),> 100 µM (inactive),> 100 µM (inactive),> 100 µM (inactive),> 100 µM (inactive),–,> 100 µM (inactive),> 100 µM (inactive),> 100 µM (inactive),> 100 µM (inactive),> 100 µM (inactive),42.1 µM (inactive),> 100 µM (inactive),> 100 µM (inactive),> 100 µM (inactive),> 100,> 100 µM (inactive),–,> 100 µM (inactive)
COc1ccc(/N=c2/[nH]c(N)c(C(=O)c3ccc(OC)cc3)s2)cc1,1.93 µM (inactive),0.468 µM (active),18.7 µM (inactive),0.376 µM (active),0.279 µM (active),–,0.316 µM (active),0.508 µM (active),0.59 µM (active),0.596 µM (active),0.0306 µM (active),0.273 µM (active),0.277 µM (active),0.284 µM (active),0.313 µM (active),0.412,4.55 µM (inactive),0.119 µM (active),0.347 µM (active)
